Patent US20250221410A1, “SUBSTITUTED 2-C-AZINES AND SALTS THEREOF, AND USE THEREOF AS HERBICIDAL ACTIVE SUBSTANCES” (BAYER AKTIENGESELLSCHAFT, priority 2022, published 2025)

How the values were obtained:
SETVI: Setaria viridis [1] = test: Pre-emergence herbicide efficacy at 1280 g/ha, SETVI; format: in vivo; conditions: visual scoring vs untreated controls
Method in brief: (§1)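 Weed seeds were sown in sandy loam, covered with soil, and the soil surface was treated with the compound, formulated as wettable powder or emulsion concentrate, in water containing 0.5% additive at 600 L/ha. Plants then grew in the greenhouse for roughly 3 weeks before percentage efficacy was scored by eye against untreated controls.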

STEME: Stellaria media [2] = test: Pre-emergence herbicide efficacy at 1280 g/ha, STEME; format: in vivo; conditions: visual scoring vs untreated controls
Method in brief: as §1

[3] = test system: DIGSA: Digitaria sanguinalis; test: Pre-emergence herbicide efficacy at 80 g/ha, DIGSA; format: in vivo; conditions: scored visually after about 3 weeks
Method in brief: (§2)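 Seeds are placed in pots and covered with soil, then the soil surface is treated with the formulated compound in water plus 0.5% additive (600 l/ha equivalent). Plants grow under good greenhouse conditions, and damage is rated visually as a percentage of untreated controls after roughly 3 weeks.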

[4] = test system: ECHCG: Echinochloa crus-galli; test: Pre-emergence herbicide efficacy at 1280 g/ha, ECHCG; format: in vivo; conditions: visual scoring after about 3 weeks vs untreated controls
Method in brief: as §1

KCHSC: Kochia scoparia [5] = test: Pre-emergence herbicide efficacy at 1280 g/ha, KCHSC; format: in vivo; conditions: visual scoring after about 3 weeks vs untreated controls
Method in brief: as §1

KCHSC: Kochia scoparia [6] = test: Post-emergence herbicidal efficacy at 1280 g/ha, KCHSC; format: in vivo; conditions: visual rating about 3 weeks after treatment vs untreated controls
Method in brief: (§3)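 Visual damage rating was made roughly 3 weeks after treatment, relative to untreated plants, on a scale where 0% means no effect and 100% means plants died. Foliar application was at the one-leaf stage as an aqueous WP/EC spray with 0.5% additive at 600 L/ha water, on greenhouse-grown pot plants.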

POAAN: Poa annua [7] = test: Post-emergence herbicidal efficacy at 1280 g/ha, POAAN; format: in vivo; conditions: visual rating about 3 weeks after treatment vs untreated controls
Method in brief: as §3

[8] = test system: AMARE: Amaranthus retroflexus; test: Post-emergence herbicidal efficacy at 80 g/ha, AMARE; format: in vivo; conditions: visual rating about 3 weeks after treatment vs untreated controls
Method in brief: (§4)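 Visual percent activity versus untreated plants (100% = plants died) was scored roughly 3 weeks after treatment. Plants grew in greenhouse pots of sandy loam and got a post-emergence spray at one-leaf stage: WP or EC compound with 0.5% additive, 600 l/ha water.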

[9] = test system: AMARE: Amaranthus retroflexus; test: Post-emergence herbicidal efficacy at 1280 g/ha, AMARE; format: in vivo; conditions: rated visually after about 3 weeks vs untreated controls, 100% = plants have died, 0% = like control plants
Method in brief: as §3

VIOTR: Viola tricolor = test: Post-emergence herbicidal efficacy at 80 g/ha, VIOTR; format: in vivo; conditions: visual rating about 3 weeks after treatment vs untreated controls
Method in brief: as §4

POAAN: Poa annua [10] = test: Pre-emergence herbicide efficacy at 1280 g/ha, POAAN; format: in vivo; conditions: visual scoring after about 3 weeks vs untreated controls
Method in brief: as §1

[11] = test system: ECHCG: Echinochloa crus-galli; test: Post-emergence herbicidal efficacy at 1280 g/ha, ECHCG; format: in vivo; conditions: rated visually after about 3 weeks vs untreated controls, 100% = plants have died, 0% = like control plants
Method in brief: as §3

POLCO [12] = test: Pre-emergence herbicide efficacy at 80 g/ha, POLCO; format: in vivo; conditions: Polygonum convolvulus, scored visually after about 3 weeks
Method in brief: as §2

POLCO [13] = test: Post-emergence herbicidal efficacy at 80 g/ha, POLCO; format: in vivo, Polygonum convolvulus; conditions: visual rating about 3 weeks after treatment vs untreated controls
Procedure: Seeds of monocotyledonous and dicotyledonous weeds and crop plants were placed in sandy loam in plastic or organic planting pots, covered with soil and cultivated in a greenhouse under controlled growth conditions. 2 to 3 weeks after sowing, the test plants were treated at the one-leaf stage. The compounds of the invention, formulated in the form of wettable powders (WP) or as emulsion concentrates (EC), were then sprayed onto the green parts of the plants as aqueous suspension or emulsion with addition of 0.5% additive at a water application rate of 600 l/ha (converted). After the test plants had been kept in the greenhouse under optimum growth conditions for about 3 weeks, the activity of the preparations was rated visually in comparison to untreated controls. For example, 100% activity=the plants have died, 0% activity=like control plants. Tables B1 to B10 below show the effects of selected compounds of the general formula (I) according to Table 1 on various harmful plants and an application rate corresponding to 80 g/ha, which were obtained by the experimental procedure mentioned above.

[14] = test system: DIGSA: Digitaria sanguinalis; test: Post-emergence herbicidal efficacy at 1280 g/ha, DIGSA; format: in vivo; conditions: rated visually after about 3 weeks vs untreated controls, 100% = plants have died, 0% = like control plants
Method in brief: as §3

VERPE: Veronica persica = test: Pre-emergence herbicide efficacy at 1280 g/ha, VERPE; format: in vivo; conditions: visual scoring vs untreated controls
Method in brief: as §1

SETVI: Setaria viridis [15] = test: Pre-emergence herbicide efficacy at 80 g/ha, SETVI; format: in vivo; conditions: scored visually after about 3 weeks
Method in brief: as §2

[16] = test system: AMARE: Amaranthus retroflexus; test: Pre-emergence herbicide efficacy at 80 g/ha, AMARE; format: in vivo; conditions: scored visually after about 3 weeks
Method in brief: as §2

STEME: Stellaria media [17] = test: Post-emergence herbicidal efficacy at 1280 g/ha, STEME; format: in vivo; conditions: visual rating about 3 weeks after treatment vs untreated controls
Method in brief: as §3

[18] = test system: ECHCG: Echinochloa crus-galli; test: Pre-emergence herbicide efficacy at 80 g/ha, ECHCG; format: in vivo; conditions: scored visually after about 3 weeks
From the text: Seeds of monocotyledonous and dicotyledonous weed plants and crop plants were placed in plastic or organic planting pots and covered with soil. The compounds of the invention, formulated in the form of wettable powders (WP) or as emulsion concentrates (EC), were then applied to the surface of the covering soil as aqueous suspension or emulsion with addition of 0.5% additive at a water application rate equivalent to 600 l/ha. After the treatment, the pots were placed in a greenhouse and kept under good growth conditions for the test plants. After about 3 weeks, the efficacy of the preparations was scored visually in comparison with untreated controls as percentages. For example, 100% activity=the plants have died, 0% activity=like control plants. Tables D1 to D12 below show the effects of selected compounds of the general formula (I) according to Table 1 on various harmful plants and an application rate corresponding to 80 g/ha, which were obtained by the experimental procedure mentioned above.

[19] = test system: ALOMY: Alopecurus myosuroides; test: Pre-emergence herbicide efficacy at 1280 g/ha, ALOMY; format: in vivo; conditions: visual scoring after about 3 weeks vs untreated controls
Method in brief: as §1

[20] = test system: ABUTH: Abutilon theophrasti; test: Pre-emergence herbicide efficacy at 1280 g/ha, ABUTH; format: in vivo; conditions: visual scoring after about 3 weeks vs untreated controls
Method in brief: as §1

LOLRI: Lolium rigidum = test: Pre-emergence herbicide efficacy at 1280 g/ha, LOLRI; format: in vivo; conditions: visual scoring after about 3 weeks vs untreated controls
Method in brief: as §1

| Compound | Pre-emergence efficacy against SETVI in % (SETVI: Setaria viridis [1]) | Pre-emergence efficacy against STEME in % (STEME: Stellaria media [2]) | Pre-emergence efficacy against DIGSA in % [3] | Pre-emergence efficacy against ECHCG [4] | Pre-emergence efficacy against KCHSC (KCHSC: Kochia scoparia [5]) | Post-emergence efficacy against KCHSC (KCHSC: Kochia scoparia [6]) | Post-emergence efficacy against POAAN (POAAN: Poa annua [7]) | Post-emergence efficacy against AMARE [8] | Post-emergence efficacy at 1280 g/ha against AMARE in % [9] | Post-emergence efficacy against VIOTR (VIOTR: Viola tricolor) | Pre-emergence efficacy against POAAN (POAAN: Poa annua [10]) | Post-emergence efficacy at 1280 g/ha against ECHCG in % [11] | Pre-emergence efficacy against POLCO in % (POLCO [12]) | Post-emergence efficacy at 1280 g/ha against DIGSA in % [14] | Pre-emergence efficacy against VERPE in % (VERPE: Veronica persica) | Pre-emergence efficacy against SETVI in % (SETVI: Setaria viridis [15]) | Pre-emergence efficacy against AMARE in % [16] | Post-emergence efficacy against STEME (STEME: Stellaria media [17]) | Pre-emergence efficacy against ECHCG in % [18] | Pre-emergence efficacy against ALOMY [19] | also measured |
| --- | --- | --- | --- | --- | --- | --- | --- | --- | --- | --- | --- | --- | --- | --- | --- | --- | --- | --- | --- | --- | --- |
| Fc1cnc(Oc2cccc(Br)c2Cc2ncc(Cl)cn2)nc1 [Example 1-54] | 100% | 100% | 100% | 100% | 100% | 100% | 100% | 100% | 100% | 100% | 100% | 100% | 80% | 90% | 100% | 100% | 100% | 100% | 100% | 90% | Post-emergence efficacy against POLCO (POLCO [13]): 80%; Pre-emergence efficacy against ABUTH [20]: 100%; Pre-emergence efficacy against LOLRI (LOLRI: Lolium rigidum): 100% |
| Clc1cnc(Cc2c(Cl)cccc2Oc2ncc(Cl)cn2)nc1 [Example 1-56] | 100% | 100% | 100% | 100% | 100% | 90% | 90% | 100% | 90% | 100% | 100% | 90% | 90% | 90% | 100% | 100% | 100% | 90% | 80% | 100% | Post-emergence efficacy against POLCO (POLCO [13]): 80%; Pre-emergence efficacy against ABUTH [20]: 100%; Pre-emergence efficacy against LOLRI (LOLRI: Lolium rigidum): 100% |
| FC(F)c1cc(-c2ccccc2Cc2ncc(Cl)cn2)on1 [Example 1-133] | 100% | 100% | 100% | 100% | 100% | 100% | 100% | 100% | 100% | 100% | 100% | 100% | 80% | 100% | 100% | 100% | 100% | 100% | 80% | 100% | Post-emergence efficacy against POLCO (POLCO [13]): 100%; Pre-emergence efficacy against ABUTH [20]: 100%; Pre-emergence efficacy against LOLRI (LOLRI: Lolium rigidum): 90% |
| N#Cc1cccc(Oc2ncc(F)cn2)c1Cc1ncc(Cl)cn1 [Example 1-59] | 100% | 100% | 100% | 100% | 100% | 100% | 100% | 100% | 100% | 100% | 100% | 90% | 90% | 100% | 100% | 100% | 100% | 100% | 100% | 100% | Pre-emergence efficacy against ABUTH [20]: 100%; Pre-emergence efficacy against LOLRI (LOLRI: Lolium rigidum): 100% |
